{
  "source": "patent EP4778933A1",
  "about": "(Chengdu Hyperway Pharmaceuticals Co., Ltd., priority 2023, dated 2025)",
  "key": {"[1]": {"experiment": "In vivo pharmacokinetic test in mice", "settings": "single dose 30 mg/kg, plasma", "protocol": "Each test compound was administered orally once to female BALB/c mice for pharmacokinetic study. The test compounds were prepared on the day of administration. The oral administration solvent: 50 mM sodium citrate (pH 5.0) + 10% captisol. The oral administration was conducted in a dose of 30 mg/kg. The animals were fasted for 10-14 h before oral administration, and the feeding was resumed 4 h after administration. Pharmacokinetic samples were collected through the orbit. The collection time points were: 15 min, 30 min, 1 h, 2 h, 4 h, 6 h, 8 h and 24 h after administration. Three whole blood samples were collected at each time point, with a collection volume of about 0.2 mL, and anticoagulated with sodium heparin. After blood samples were collected, they were immediately placed on ice and centrifuged within 1 h to isolate plasma (centrifugation conditions: 8000 rpm, 1 min, 2-8°C). The collected plasma was stored in a -20°C refrigerator before analysis. The concentrations of compounds in the plasma samples were determined using an LC-MS/MS analysis method."}, "[2]": {"system": "KRAS G12D-mediated ERK phosphorylation", "experiment": "Inhibition of KRAS G12D-mediated ERK phosphorylation in AGS cells (in-cell pERK/GAPDH immunofluorescence)", "assay_type": "cell-based", "protocol": "(§1) Day 1: AGS cells, SW480 cells, NCI H358 cells, HCT116 cells, and KP2 cells were seeded into 384-well cell culture plates and cultured overnight in a 37°C, 5% CO2 incubator.\n(§2) Day 2: The compounds were added to the plates using Echo550 and incubated for 3 h in a 37°C, 5% CO2 incubator. Then, cells fixed with paraformaldehyde, permeated with methanol and blocked with a blocking solution were added. Finally, a mixed solution of primary antibodies (rabbit anti pERK, mouse anti GAPDH) was added, and the mixture was incubated overnight at 4°C.\n(§3) Day 3: The mixed solution of primary antibodies was discarded, and a mixed solution of secondary antibodies (goat anti rabbit 800 CW, goat anti mouse 680 RD) was added. The resulting mixture was incubated at room temperature in the dark. Finally, the cell culture plate was washed with PBST, and then inverted for 1 minute of centrifugation. The fluorescence signal values were read with Odyssey CLx.\n(§4) ERK phosphorylation was calculated according to the following formula: [formula] • Negative control: DMSO • Positive control: 10 µM Reference • IC50 value was fitted and calculated by XLFit 5.0 using the parametric formula. • Y = Bottom+(Top-Bottom)/(1+10^((LogIC50-X)*HillSlope)) • X: log value of compound concentration. • Y: average value of relative expression of p-ERK between replicate wells."}, "[3]": {"system": "KRAS G12V-mediated ERK phosphorylation", "experiment": "Inhibition of KRAS G12V-mediated ERK phosphorylation in SW480 cells", "assay_type": "cell-based", "settings": "3 h incubation, read-out: Inhibitory activity on ERK phosphorylation (IC50) SW480-G12V", "protocol": "as §1, §2, §3, §4"}, "[4]": {"settings": "female BALB/c mice, oral, 30 mg/kg"}, "[5]": {"settings": "AGS cells, 3 h incubation, read-out: Inhibitory activity on ERK phosphorylation (IC50) AGS-G12D"}, "[6]": {"settings": "Homo sapiens, AGS, 3 h, read-out: Inhibitory activity on ERK phosphorylation (IC50) AGS-G12D, AGS cells, 3 h incubation"}},
  "note": "pIC50: −log10 of the molar value. Read-outs that look alike come from different tables or passages of the source.",
  "data": [
    {"smiles": "N#Cc1c(N)sc2c(F)ccc(-c3c(Cl)cc4c(N5CCOCC5)nc(OC[C@@]56CCCN5[C@H](c5cc(F)c(F)c(F)c5)CC6)nc4c3F)c12", "note": "(relative stereo) [Example 17]", "values": [
      {"measurement": "AUC", "setting": "[1]; mouse, female BALB/c mice, oral, read-out: AUC", "result": 3990, "unit": "ng·h/mL"},
      {"measurement": "Cmax", "setting": "[1]; mouse, female BALB/c mice, oral, read-out: Cmax", "result": 1490, "unit": "ng/mL"},
      {"measurement": "pIC50", "setting": "[2]; Homo sapiens, AGS cells, 3 h incubation, read-out: Inhibitory activity on ERK phosphorylation (IC50) AGS-G12D", "result": 7.39}
    ]},
    {"smiles": "CC1(O)COCCN(c2nc(OCC34CCCN3C(c3cc(F)c(F)c(F)c3)CC4)nc3c(F)c(-c4ccc(F)c5sc(N)c(C#N)c45)c(Cl)cc23)C1", "note": "(single isomer, unassigned) [Example 9, 2-amino-4-[6-chloro-8-fluoro-4-(6-hydroxy-6-methyl-1,4-oxazepan-4-yl)-2-({[3-(3,4,5-trifluorophenyl)-2,3,5,6,7,7a-hexahydro-1H-pyrrolizin-7a-yl]methyl}oxy)quinazolin-7-yl]-7-fluorobenzo[b]thiophene-3-carbonitrile]", "values": [
      {"measurement": "AUC", "setting": "[1]; [4]", "result": 5181, "unit": "ng·h/mL"},
      {"measurement": "Cmax", "setting": "[1]; [4]", "result": 1897, "unit": "ng/mL"},
      {"measurement": "pIC50", "setting": "[2]; [5]", "result": 7.57}
    ]},
    {"smiles": "CC1(O)COCCN(c2nc(OCC34CCCN3C(c3cc(F)c(F)c(F)c3)CC4)nc3c(F)c(-c4ccc(F)c5sc(N)c(C#N)c45)c(Cl)cc23)C1", "note": "(single isomer, unassigned) [Example 10, 2-amino-4-[6-chloro-8-fluoro-4-(6-hydroxy-6-methyl-1,4-oxazepan-4-yl)-2-({[3-(3,4,5-trifluorophenyl)-2,3,5,6,7,7a-hexahydro-1H-pyrrolizin-7a-yl]methyl}oxy)quinazolin-7-yl]-7-fluorobenzo[b]thiophene-3-carbonitrile]", "values": [
      {"measurement": "pIC50", "setting": "[3]", "result": "< 6.00"}
    ]},
    {"smiles": "CC1(O)COCCN(c2nc(OCC34CCCN3C(c3cc(F)c(F)c(F)c3)CC4)nc3c(F)c(-c4ccc(F)c5sc(N)c(C#N)c45)c(Cl)cc23)C1", "note": "(single isomer, unassigned) [Example 11, 2-amino-4-[6-chloro-8-fluoro-4-(6-hydroxy-6-methyl-1,4-oxazepan-4-yl)-2-({[3-(3,4,5-trifluorophenyl)-2,3,5,6,7,7a-hexahydro-1H-pyrrolizin-7a-yl]methyl}oxy)quinazolin-7-yl]-7-fluorobenzo[b]thiophene-3-carbonitrile]", "values": [
      {"measurement": "pIC50", "setting": "[3]", "result": "< 6.00"}
    ]},
    {"smiles": "CC1(O)COCCN(c2nc(OCC34CCCN3C(c3cc(F)c(F)c(F)c3)CC4)nc3c(F)c(-c4ccc(F)c5sc(N)c(C#N)c45)c(Cl)cc23)C1", "note": "(single isomer, unassigned) [Example 13, 2-amino-4-[6-chloro-8-fluoro-4-(6-hydroxy-6-methyl-1,4-oxazepan-4-yl)-2-({[3-(3,4,5-trifluorophenyl)-2,3,5,6,7,7a-hexahydro-1H-pyrrolizin-7a-yl]methyl}oxy)quinazolin-7-yl]-7-fluorobenzo[b]thiophene-3-carbonitrile]", "values": [
      {"measurement": "pIC50", "setting": "[3]", "result": 7.80}
    ]},
    {"smiles": "CC1(O)COCCN(c2nc(OCC34CCCN3C(c3cc(F)c(F)c(F)c3)CC4)nc3c(F)c(-c4cccc5sc(N)c(C#N)c45)c(Cl)cc23)C1", "note": "(single isomer, unassigned) [Example 18, 2-amino-4-[6-chloro-8-fluoro-4-(6-hydroxy-6-methyl-1,4-oxazepan-4-yl)-2-({[3-(3,4,5-trifluorophenyl)-2,3,5,6,7,7a-hexahydro-1H-pyrrolizin-7a-yl]methyl}oxy)quinazolin-7-yl]benzo[b]thiophene-3-carbonitrile]", "values": [
      {"measurement": "AUC", "setting": "[1]; [4]", "result": 6017, "unit": "ng·h/mL"},
      {"measurement": "Cmax", "setting": "[1]; [4]", "result": 2148, "unit": "ng/mL"},
      {"measurement": "pIC50", "setting": "[2]; [5]", "result": 7.48}
    ]},
    {"smiles": "CC1(O)COCCN(c2nc(OCC34CCCN3C(c3cc(F)c(F)c(F)c3)CC4)nc3c(F)c(-c4cccc5sc(N)c(C#N)c45)c(I)cc23)C1", "note": "(single isomer, unassigned) [Example 28, 2-amino-4-[6-iodo-8-fluoro-4-(6-hydroxy-6-methyl-1,4-oxazepan-4-yl)-2-({[3-(3,4,5-trifluorophenyl)-2,3,5,6,7,7a-hexahydro-1H-pyrrolizin-7a-yl]methyl}oxy)quinazolin-7-yl]benzo[b]thiophene-3-carbonitrile]", "values": [
      {"measurement": "AUC", "setting": "[1]; [4]", "result": 9224, "unit": "ng·h/mL"},
      {"measurement": "Cmax", "setting": "[1]; female, BALB/c, mouse, po, 30 mg/kg, read-out: Cmax", "result": 3290, "unit": "ng/mL"},
      {"measurement": "pIC50", "setting": "[2]; [5]", "result": 8.38}
    ]},
    {"smiles": "CC1(O)COCCN(c2nc(OCC34CCCN3C(c3cc(F)c(F)c(F)c3)CC4)nc3c(F)c(-c4cccc5sc(N)c(C#N)c45)c(I)cc23)C1", "note": "(single isomer, unassigned) [Example 30, 2-amino-4-[6-iodo-8-fluoro-4-(6-hydroxy-6-methyl-1,4-oxazepan-4-yl)-2-({[3-(3,4,5-trifluorophenyl)-2,3,5,6,7,7a-hexahydro-1H-pyrrolizin-7a-yl]methyl}oxy)quinazolin-7-yl]benzo[b]thiophene-3-carbonitrile]", "values": [
      {"measurement": "pIC50", "setting": "[2]; [5]", "result": 7.03}
    ]},
    {"smiles": "CC1(O)COCCN(c2nc(OCC34CCCN3C(c3cc(F)c(F)c(F)c3)CC4)nc3c(F)c(-c4cccc5sc(N)c(C#N)c45)c(I)cc23)C1", "note": "(single isomer, unassigned) [Example 32, 2-amino-4-[6-iodo-8-fluoro-4-(6-hydroxy-6-methyl-1,4-oxazepan-4-yl)-2-({[3-(3,4,5-trifluorophenyl)-2,3,5,6,7,7a-hexahydro-1H-pyrrolizin-7a-yl]methyl}oxy)quinazolin-7-yl]benzo[b]thiophene-3-carbonitrile]", "values": [
      {"measurement": "pIC50", "setting": "[2]; [5]", "result": 7.62}
    ]},
    {"smiles": "CC1(O)COCCN(c2nc(OCC34CCCN3C(c3cc(F)c(F)c(F)c3)CC4)nc3c(F)c(-c4cccc5sc(N)c(C#N)c45)c(P(C)(C)=O)cc23)C1", "note": "(single isomer, unassigned) [Example 33, 2-amino-4-{6-[dimethyl(oxo)-15-methylphosphino]-8-fluoro-4-(6-hydroxy-6-methyl-1,4-oxazepan-4-yl)-2-({[3-(3,4,5-trifluorophenyl)-2,3,5,6,7,7a-hexahydro-1H-pyrrolizin-7a-yl]methyl}oxy)quinazolin-7-yl}benzo[b]thiophene-3-carbonitrile]", "values": [
      {"measurement": "pIC50", "setting": "[2]; [6]", "result": 6.71}
    ]},
    {"smiles": "N#Cc1c(N)sc2cccc(-c3c(Cl)cc4c(N5CCNOCC5)nc(OCC56CCCN5C(c5cc(F)c(F)c(F)c5)CC6)nc4c3F)c12", "note": "(single isomer, unassigned) [Example 34, 2-amino-4-[6-chloro-8-fluoro-4-(1,2,5-oxadiazepan-5-yl)-2-({[3-(3,4,5-trifluorophenyl)-2,3,5,6,7,7a-hexahydro-1H-pyrrolizin-7a-yl]methyl}oxy)quinazolin-7-yl]benzo[b]thiophene-3-carbonitrile]", "values": [
      {"measurement": "pIC50", "setting": "[2]; Homo sapiens, AGS, 3 h, AGS cells, 3 h incubation, read-out: Inhibitory activity on ERK phosphorylation (IC50) AGS-G12D", "result": 7.17}
    ]},
    {"smiles": "CC1(O)COCCN(c2nc(OCC34CCCN3C(c3cc(F)c(F)c(F)c3)CC4)nc3c(F)c(-c4cncc5sc(N)c(C#N)c45)c(Cl)cc23)C1", "note": "(single isomer, unassigned) [Example 37, 2-amino-4-[6-chloro-8-fluoro-4-(6-hydroxy-6-methyl-1,4-oxazepan-4-yl)-2-({[1-(3,4,5-trifluoropheny 1)octahydrocyclopenta[1,2-a][5]annulen-3a-yl]methyl}oxy)quinazolin-7-yl]thieno[2,3-c]pyridine-3-ca rbonitrile]", "values": [
      {"measurement": "pIC50", "setting": "[2]; [6]", "result": 6.71}
    ]}
  ]
}
